Converted amounts (≈) assume the structure as drawn.
Assays:
Staphylococcus aureus [1] = test: Resistance index, ratio of MIC for antibacterial activity against methicillin-resistant Staphylococcus aureus USA400 treated over 1 passage to MIC for antibacterial activity against methicillin-resistant Staphylococcus aureus USA400 treated for 18 to 20 hrs by broth microdilution assay; assay type: functional
Staphylococcus aureus [2] = test: Resistance index, ratio of MIC for antibacterial activity against methicillin-resistant Staphylococcus aureus USA400 treated repeatedly over 9 passages to MIC for antibacterial activity against methicillin-resistant Staphylococcus aureus USA400 treated for 18 to 20 hrs by broth microdilution assay; assay type: functional
Staphylococcus aureus [3] = test: Antibacterial activity against Staphylococcus aureus NRS107 assessed as reduction in bacterial cell growth incubated for 18 to 20 hrs by broth microdilution method; assay type: functional
Staphylococcus aureus [4] = test: Antibacterial activity against methicillin resistant Staphylococcus aureus USA400 assessed as reduction in bacterial cell growth incubated for 18 to 20 hrs by broth microdilution method; assay type: functional
Staphylococcus aureus [5] = test: Antibacterial activity against methicillin-resistant Staphylococcus aureus USA300 assessed as reduction in bacterial cell growth incubated for 18 to 20 hrs by broth microdilution method; assay type: functional
Staphylococcus aureus [6] = test: Antibacterial activity against methicillin resistant Staphylococcus aureus NRS119 assessed as reduction in bacterial cell growth incubated for 18 to 20 hrs by broth microdilution method; assay type: functional
Staphylococcus aureus [7] = test: Antibacterial activity against vancomycin resistant Staphylococcus aureus VRS10 assessed as reduction in bacterial cell growth incubated for 18 to 20 hrs by broth microdilution method; assay type: functional
Staphylococcus aureus [8] = test: Antibacterial activity against Staphylococcus aureus ATCC 6538 assessed as reduction in bacterial cell growth incubated for 18 to 20 hrs by broth microdilution method; assay type: functional
[9] = system: Staphylococcus epidermidis; test: Antibacterial activity against methicillin resistant Staphylococcus epidermidis NRS101 assessed as reduction in bacterial cell growth incubated for 18 to 20 hrs by broth microdilution method; assay type: functional
Staphylococcus aureus [10] = test: Antibacterial activity against vancomycin resistant Staphylococcus aureus VRS12 assessed as reduction in bacterial cell growth incubated for 18 to 20 hrs by broth microdilution method; assay type: functional
Staphylococcus aureus [11] = test: Antibacterial activity against vancomycin resistant Staphylococcus aureus VRS11a assessed as reduction in bacterial cell growth incubated for 18 to 20 hrs by broth microdilution method; assay type: functional
Staphylococcus aureus [12] = test: Antibacterial activity against intracellular methicillin resistant Staphylococcus aureus USA400 infected in mouse J774 cells assessed as log10 reduction of viable bacterial cells incubated for 24 hrs followed by re-plating on tryptic soy agar plates at 37 degC for 18 to 22 hrs by broth microdilution assay; assay type: functional
Enterococcus faecalis [13] = test: Antibacterial activity against vancomycin resistant Enterococcus faecalis ATCC 51299 assessed as reduction in bacterial cell growth incubated for 18 to 20 hrs by broth microdilution method; assay type: functional
Enterococcus faecium [14] = test: Antibacterial activity against vancomycin resistant Enterococcus faecium ATCC 700221 assessed as reduction in bacterial cell growth incubated for 18 to 20 hrs by broth microdilution method; assay type: functional
Listeria monocytogenes [15] = test: Antibacterial activity against Listeria monocytogenes ATCC 19111 assessed as reduction in bacterial cell growth incubated for 18 to 20 hrs by broth microdilution method; assay type: functional
Streptococcus pneumoniae [16] = test: Antibacterial activity against Cephalosporin resistant Streptococcus pneumoniae ATCC 51916 assessed as reduction in bacterial cell growth incubated for 18 to 20 hrs by broth microdilution method; assay type: functional
Streptococcus pneumoniae [17] = test: Antibacterial activity against Methicillin resistant Streptococcus pneumoniae ATCC 700677 assessed as reduction in bacterial cell growth incubated for 18 to 20 hrs by broth microdilution method; assay type: functional
Staphylococcus aureus [18] = test: Bactericidal activity against Staphylococcus aureus ATCC 6538 assessed as reduction in bacterial cell growth incubated for 18 to 20 hrs followed by re-plating on tryptic soy agar plates at 37 degC for 18 hrs by broth microdilution assay; assay type: functional
Staphylococcus aureus [19] = test: Bactericidal activity against Staphylococcus aureus NRS107 assessed as reduction in bacterial cell growth incubated for 18 to 20 hrs followed by re-plating on tryptic soy agar plates at 37 degC for 18 hrs by broth microdilution assay; assay type: functional
Staphylococcus aureus [20] = test: Bactericidal activity against methicillin resistant Staphylococcus aureus NRS119 assessed as reduction in bacterial cell growth incubated for 18 to 20 hrs followed by re-plating on tryptic soy agar plates at 37 degC for 18 hrs by broth microdilution assay; assay type: functional
Staphylococcus aureus [21] = test: Bactericidal activity against methicillin-resistant Staphylococcus aureus USA300 assessed as reduction in bacterial cell growth incubated for 18 to 20 hrs followed by re-plating on tryptic soy agar plates at 37 degC for 18 hrs by broth microdilution assay; assay type: functional
Staphylococcus aureus [22] = test: Bactericidal activity against vancomycin resistant Staphylococcus aureus VRS10 assessed as reduction in bacterial cell growth incubated for 18 to 20 hrs followed by re-plating on tryptic soy agar plates at 37 degC for 18 hrs by broth microdilution assay; assay type: functional
Staphylococcus aureus [23] = test: Bactericidal activity against vancomycin resistant Staphylococcus aureus VRS11a assessed as reduction in bacterial cell growth incubated for 18 to 20 hrs followed by re-plating on tryptic soy agar plates at 37 degC for 18 hrs by broth microdilution assay; assay type: functional
Staphylococcus aureus [24] = test: Bactericidal activity against vancomycin resistant Staphylococcus aureus VRS12 assessed as reduction in bacterial cell growth incubated for 18 to 20 hrs followed by re-plating on tryptic soy agar plates at 37 degC for 18 hrs by broth microdilution assay; assay type: functional
[25] = system: Staphylococcus epidermidis; test: Bactericidal activity against methicillin resistant Staphylococcus epidermidis NRS101 assessed as reduction in bacterial cell growth incubated for 18 to 20 hrs followed by re-plating on tryptic soy agar plates at 37 degC for 18 hrs by broth microdilution assay; assay type: functional
Enterococcus faecalis [26] = test: Bactericidal activity against vancomycin resistant Enterococcus faecalis ATCC 51299 assessed as reduction in bacterial cell growth incubated for 18 to 20 hrs followed by re-plating on tryptic soy agar plates at 37 degC for 18 hrs by broth microdilution assay; assay type: functional
Enterococcus faecium [27] = test: Bactericidal activity against vancomycin resistant Enterococcus faecium ATCC 700221 assessed as reduction in bacterial cell growth incubated for 18 to 20 hrs followed by re-plating on tryptic soy agar plates at 37 degC for 18 hrs by broth microdilution assay; assay type: functional
Listeria monocytogenes [28] = test: Bactericidal activity against Listeria monocytogenes ATCC 19111 assessed as reduction in bacterial cell growth incubated for 18 to 20 hrs followed by re-plating on tryptic soy agar plates at 37 degC for 18 hrs by broth microdilution assay; assay type: functional
Streptococcus pneumoniae [29] = test: Bactericidal activity against Cephalosporin resistant Streptococcus pneumoniae ATCC 51916 assessed as reduction in bacterial cell growth incubated for 18 to 20 hrs followed by re-plating on tryptic soy agar plates at 37 degC for 18 hrs by broth microdilution assay; assay type: functional
Streptococcus pneumoniae [30] = test: Bactericidal activity against Methicillin resistant Streptococcus pneumoniae ATCC 700677 assessed as reduction in bacterial cell growth incubated for 18 to 20 hrs followed by re-plating on tryptic soy agar plates at 37 degC for 18 hrs by broth microdilution assay; assay type: functional
Acinetobacter baumannii [31] = test: Antibacterial activity against Acinetobacter baumannii ATCC 19606 assessed as reduction in bacterial cell growth incubated for 18 to 20 hrs by broth microdilution method; assay type: functional
Escherichia coli [32] = test: Antibacterial activity against Escherichia coli BW25113 assessed as reduction in bacterial cell growth incubated for 18 to 20 hrs by broth microdilution method; assay type: functional
Escherichia coli [33] = test: Antibacterial activity against Escherichia coli JW55031 harboring deltatolC mutant assessed as reduction in bacterial cell growth incubated for 18 to 20 hrs by broth microdilution method; assay type: functional
Klebsiella pneumoniae [34] = test: Antibacterial activity against Klebsiella pneumoniae BAA-1706 assessed as reduction in bacterial cell growth incubated for 18 to 20 hrs by broth microdilution method; assay type: functional
Pseudomonas aeruginosa [35] = test: Antibacterial activity against Pseudomonas aeruginosa ATCC 15442 assessed as reduction in bacterial cell growth incubated for 18 to 20 hrs by broth microdilution method; assay type: functional
Acinetobacter baumannii [36] = test: Bactericidal activity against Acinetobacter baumannii ATCC 19606 assessed as reduction in bacterial cell growth incubated for 18 to 20 hrs followed by re-plating on tryptic soy agar plates at 37 degC for 18 hrs by broth microdilution assay; assay type: functional
Escherichia coli [37] = test: BActericidal activity against Escherichia coli BW25113 assessed as reduction in bacterial cell growth incubated for 18 to 20 hrs followed by re-plating on tryptic soy agar plates at 37 degC for 18 hrs by broth microdilution assay; assay type: functional
Escherichia coli [38] = test: Bactericidal activity against Escherichia coli JW55031 harboring deltatolC mutant assessed as reduction in bacterial cell growth incubated for 18 to 20 hrs followed by re-plating on tryptic soy agar plates at 37 degC for 18 hrs by broth microdilution assay; assay type: functional
Klebsiella pneumoniae [39] = test: Bactericidal activity against Klebsiella pneumoniae BAA-1706 assessed as reduction in bacterial cell growth incubated for 18 to 20 hrs followed by re-plating on tryptic soy agar plates at 37 degC for 18 hrs by broth microdilution assay; assay type: functional
Pseudomonas aeruginosa [40] = test: Bactericidal activity against Pseudomonas aeruginosa ATCC 15442 assessed as reduction in bacterial cell growth incubated for 18 to 20 hrs followed by re-plating on tryptic soy agar plates at 37 degC for 18 hrs by broth microdilution assay; assay type: functional
J774 [41] = test: Cytotoxicity against mouse J774 assessed as reduction in cell viability at 16 ug/ml incubated for 24 hrs by MTS assay; assay type: cell-based; conditions: j774, 24 h
J774 [42] = test: Cytotoxicity against mouse J774 cells reduction in cell viability up to 32 ug/ml incubated for 24 hrs by MTS assay; assay type: cell-based; conditions: j774, 24 h
[43] = Solubility of compound in PBS after 2 hrs by turbidity based absorbance analysis; assay type: physicochemical

CO[C@H]1/C=C/O[C@@]2(C)Oc3c(C)c(O)c4c(O)c(c(/C=N/N5CCN(C)CC5)c(O)c4c3C2=O)NC(=O)/C(C)=C\C=C\[C@H](C)[C@H](O)[C@@H](C)[C@@H](O)[C@@H](C)[C@H](OC(C)=O)[C@@H]1C [RIFAMPIN]
Ratio (Staphylococcus aureus [1]): 29
Ratio (Staphylococcus aureus [2]): >500000

C/C(=N\NC(=N)N)c1sc(-c2ccc(C#Cc3cccc(O)c3)cc2)nc1C
MIC (Staphylococcus aureus [3]): 4 µg/mL (≈ 10.3 µM)
MIC (Staphylococcus aureus [4]): 2 µg/mL (≈ 5.13 µM)
MIC (Staphylococcus aureus [5]): 4 µg/mL (≈ 10.3 µM)
MIC (Staphylococcus aureus [6]): 2 µg/mL (≈ 5.13 µM)
MIC (Staphylococcus aureus [7]): 4 µg/mL (≈ 10.3 µM)
MIC (Staphylococcus aureus [8]): 2 µg/mL (≈ 5.13 µM)
MIC [9]: 2 µg/mL (≈ 5.13 µM)
MIC (Staphylococcus aureus [10]): 4 µg/mL (≈ 10.3 µM)
MIC (Staphylococcus aureus [11]): 4 µg/mL (≈ 10.3 µM)
Activity (Staphylococcus aureus [12]): 0.92 log10CFU
MIC (Enterococcus faecalis [13]): 32 µg/mL (≈ 82.2 µM)
MIC (Enterococcus faecium [14]): ≤ 0.5 µg/mL
MIC (Listeria monocytogenes [15]): 8 µg/mL (≈ 20.5 µM)
MIC (Streptococcus pneumoniae [16]): 8 µg/mL (≈ 20.5 µM)
MIC (Streptococcus pneumoniae [17]): 16 µg/mL (≈ 41.1 µM)
MBC (Staphylococcus aureus [18]): 4 µg/mL (≈ 10.3 µM)
MBC (Staphylococcus aureus [19]): 4 µg/mL (≈ 10.3 µM)
MBC (Staphylococcus aureus [20]): 4 µg/mL (≈ 10.3 µM)
MBC (Staphylococcus aureus [21]): 4 µg/mL (≈ 10.3 µM)
MBC (Staphylococcus aureus [22]): 4 µg/mL (≈ 10.3 µM)
MBC (Staphylococcus aureus [23]): 4 µg/mL (≈ 10.3 µM)
MBC (Staphylococcus aureus [24]): 4 µg/mL (≈ 10.3 µM)
MBC [25]: 2 µg/mL (≈ 5.13 µM)
MBC (Enterococcus faecalis [26]): 64 µg/mL (≈ 164 µM)
MBC (Enterococcus faecium [27]): 1 µg/mL (≈ 2.57 µM)
MBC (Listeria monocytogenes [28]): 64 µg/mL (≈ 164 µM)
MBC (Streptococcus pneumoniae [29]): 32 µg/mL (≈ 82.2 µM)
MBC (Streptococcus pneumoniae [30]): 32 µg/mL (≈ 82.2 µM)
MIC (Acinetobacter baumannii [31]): > 64 µg/mL
MIC (Escherichia coli [32]): > 64 µg/mL
MIC (Escherichia coli [33]): 64 µg/mL (≈ 164 µM)
MIC (Klebsiella pneumoniae [34]): > 64 µg/mL
MIC (Pseudomonas aeruginosa [35]): > 64 µg/mL
MBC (Acinetobacter baumannii [36]): > 64 µg/mL
MBC (Escherichia coli [37]): > 64 µg/mL
MBC (Escherichia coli [38]): > 64 µg/mL
MBC (Klebsiella pneumoniae [39]): > 64 µg/mL
MBC (Pseudomonas aeruginosa [40]): > 64 µg/mL
Activity (J774 [41]): Non-Toxic
Activity (J774 [42]): Non-Toxic
solubility kinetic at 2 h [43]: 55 µM (≈ 21.4 µg/mL)

— ChEMBL document CHEMBL4393697, “Lipophilic efficient phenylthiazoles with potent undecaprenyl pyrophosphatase inhibitory activity” (Eur J Med Chem, 2019)
